In BindingDB's records for doi:10.1124/jpet.103.049619 (University of Kansas, 2003):
pKi: −log10 of the molar value.

Columns and labels:
Histamine H1 receptor [1] = target: Histamine H1 receptor (Homo sapiens, UniProt P35367)
Histamine H1 receptor [2] = target: Histamine H1 receptor (Cavia porcellus, UniProt P31389)
Sequence of Histamine H1 receptor (Cavia porcellus, UniProt P31389) (P31389 whole entry): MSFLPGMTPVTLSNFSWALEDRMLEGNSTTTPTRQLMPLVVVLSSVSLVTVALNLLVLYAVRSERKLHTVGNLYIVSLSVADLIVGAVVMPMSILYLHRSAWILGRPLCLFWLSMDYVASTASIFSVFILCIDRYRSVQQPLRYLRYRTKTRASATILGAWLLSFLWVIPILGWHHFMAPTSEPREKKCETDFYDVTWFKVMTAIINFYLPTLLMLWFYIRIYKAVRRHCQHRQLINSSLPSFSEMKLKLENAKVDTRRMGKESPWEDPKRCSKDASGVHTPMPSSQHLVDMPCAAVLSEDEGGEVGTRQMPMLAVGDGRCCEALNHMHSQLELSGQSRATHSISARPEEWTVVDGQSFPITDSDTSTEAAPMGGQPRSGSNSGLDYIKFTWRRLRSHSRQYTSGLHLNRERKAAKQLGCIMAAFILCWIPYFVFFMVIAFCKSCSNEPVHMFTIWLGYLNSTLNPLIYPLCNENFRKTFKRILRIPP

Sequence of Histamine H1 receptor (Homo sapiens, UniProt P35367) (P35367 whole entry): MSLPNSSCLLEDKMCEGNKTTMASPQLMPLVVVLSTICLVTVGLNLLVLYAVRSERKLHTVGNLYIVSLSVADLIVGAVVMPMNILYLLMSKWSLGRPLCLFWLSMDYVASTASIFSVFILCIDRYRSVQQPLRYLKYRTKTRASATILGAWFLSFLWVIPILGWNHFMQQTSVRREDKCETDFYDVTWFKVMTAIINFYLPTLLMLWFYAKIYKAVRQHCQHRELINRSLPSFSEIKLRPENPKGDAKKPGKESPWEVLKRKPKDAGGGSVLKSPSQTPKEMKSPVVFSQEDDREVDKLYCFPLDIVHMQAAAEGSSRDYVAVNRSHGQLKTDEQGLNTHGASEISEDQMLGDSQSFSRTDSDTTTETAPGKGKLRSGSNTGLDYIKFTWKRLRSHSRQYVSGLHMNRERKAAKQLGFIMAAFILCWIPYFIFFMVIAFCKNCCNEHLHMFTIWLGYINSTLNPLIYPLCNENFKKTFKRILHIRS

Structure (SMILES) | pKi (Histamine H1 receptor [1]) | pKi (Histamine H1 receptor [2])
N=C(NCCCc1c[nH]cn1)NCCC(c1cccc(Cl)c1)c1ccccn1 (stereo unspecified) [BU-E 47] | 6.59 | 7.27
CN(C)CCc1c[nH]c(CCC(c2ccccc2)c2ccccc2)n1 [N,N-Dimethyl-2-(3,3-diphenylpropyl)-1H-imidazole-4-(ethanamine)] | 6.40 | 6.51
NCCc1c[nH]c(-c2cccc(Cl)c2)n1 [2-(3-Chlorophenyl)histamine] | 5.75 | 6.22
Cc1ccc(C(=CCN2CCCC2)c2ccccn2)cc1 [CAS_486-12-4] |  | 8.94
CNCCc1cnc(CCC(c2ccccc2)c2ccccc2)[nH]1 [N-Methyl-2-(3,3-diphenylpropyl)-1H-imidazole-4-(ethanamine)] | 6.43 | 6.54
NCCc1nccs1 [2-(2-aminoethyl)thiazole] |  | 5.07

More lines, now with the values ahead:

pKi (Histamine H1 receptor [1]) | pKi (Histamine H1 receptor [2]) | Structure (SMILES)
5.65 | 6.15 | NCCc1c[nH]c(-c2cccc(Br)c2)n1 [2-[2-(3-bromophenyl)-1H-imidazol-4-yl]ethan-1-amine]
6.45 | 7.48 | NC(=NCCC(c1ccc(F)cc1)c1ccccn1)NCCCc1cnc[nH]1 (stereo unspecified) [CAS_65895]
5.75 | 6.21 | NCCc1c[nH]c(-c2cccc(I)c2)n1 [2-(3-Iodophenyl)histamine]
